Test results from EP1605976B1, “PHENYLCARBOXYL ACID AMIDES AND IK r CHANNEL INHIBITORS COMBINATION AND THE USE THEREOF FOR TREATING ATRIAL [sequence]” (Sanofi-Aventis Deutschland GmbH, priority 2003, dated 2004).
Several values for one entry are separate records, joined by “and”; a condition that tells them apart may be missing. Equal entries are not always repeated.

Columns and labels:
[1] = test system: persistierendem Vorhofflimmern (AF); test: Cardioversion in chronically fibrillating goats: time points of cardioversion (single goats); assay type: in vivo, Ziegen
Procedure: (§1) Es wurden Versuche an zwei Ziegen durchgeführt, die sich in persistierendem Vorhofflimmem von mehr als 45 Tagen befanden. Nach Infusion von 0,9% Kochsalzlösung über 30 min zur Kontrolle, wurde einer Ziege die Verbindung des Beispiels 1 der Reihe nach (jeweils im Abstand von Tagen) in Mengen von jeweils 0.0 (Kontrolle), 0.1, 0.3, 1, 3 und 10 mg pro kg Körpergewicht und pro Stunde über eine Dauer von 90 Minuten infundiert, wobei nach 60 Minuten zusätzlich 2 mg Ibutilide pro Kilogramm Körpergewicht in einem Zeitintervall von 30 min verabreicht wurde.
(§2) Analog wurden einer zweiten Ziege nach 60 Minuten Verabreichung verschiedener Mengen der Verbindung des Beispiels 1 (jeweils 0.0 (Kontrolle), 0.1, 0.3, 1, 3 und 10 mg pro kg Körpergewicht und pro Stunde jeweils im Abstand von Tagen) zusätzlich 10 µg Dofetilide pro kg Körpergewicht in einem Zeitintervall von 30 Minuten anstelle von Ibutilide verabreicht.
Die Zeitpunkte der Kardioversion von persistierendem Vorhofflimmem (AF) durch die Gabe der Verbindung des Beispiels 1 mit Ibutilide bzw. der Verbindung des Beispiels 1 mit Dofetilide sind in den Tabellen 3 und 4 bei verschiedenen Dosierungen der Verbindung des Beispiels 1 (0.0, 0.1, 0.3, 1,3 und 10 mg pro kg Körpergewicht und pro Stunde) dargestellt. Tabelle 3: Auftreten der Kardioversion von persistierendem Vorhofflimmern (AF) nach jeweiliger Reinduktion des Vorhofflimmerns bei verschiedenen Dosierungen der Verbindung des Beispiels 1 und bei zusätzlicher Infusion von Ibutilide nach 60 Minuten (Zeitpunkte in Minuten gemessen ab Beginn der Infusion der Verbindung des Beispiels 1)

[2] = test system: Ziegen, mit remodellierten Vorhöfen; test: Atrial effective refractory period (AERP) in goats with electrically remodelled atria; assay type: in vivo; conditions: for atriale effektive Refraktärzeit (AERP): Remodelliert (1-4 days induced AF), cycle length 400 ms, mean ± SD, Beispiel 1 3 mg/kg/h; for Verlängerung des AERP: remodelled atria
Procedure: (§3) An chronisch instrumentierten Ziegen wurden die elektrophysiologischen Effekte der Verbindung des Beispiels 1, des IKr-Kanalblockers Ibutilide und der Kombination von der Verbindung des Beispiels 1 und Ibutilide untersucht.
(§4) Nach Infusion von 0,9% Kochsalzlösung über 30 min zur Kontrolle wurden die Substanzen lbutilide und die Verbindung des Beispiels 1 zum einen in Monotherapie und zum anderen in Kombination der beiden Wirkstoffe an 7 normalen Ziegen (d. h. ohne induziertes Vorhofflimmem) durch intravenöse Infusion verabreicht und die atriale effektive Refraktärzeit (AERP) bestimmt. Bei der Monotherapie wurde über die Zeitdauer von 60 Minuten 0.12 mg Ibutilide pro kg Körpergewicht verabreicht (0.002 mg pro kg pro Minute). In der Kombination wurden über die Dauer von 120 Minuten 6 mg der Verbindung des Beispiels 1 pro kg Körpergewicht verabreicht (3mg pro kg pro Stunde), wobei nach 60 Minuten zusätzlich 0.12 mg Ibutilide pro kg pro Stunde für die Dauer von 60 Minuten verabreicht wurden. Die Infusion der Verbindung des Beispiels 1 wurde insgesamt über 120 min durchgeführt. Kontrollmessungen der atrialen effektiven Refraktärzeit wurden einmal vor Gabe des Ibutilides (Kontrolle 1) und einmal vor Gabe der Verbindung des Beispiels 1 (Kontrolle 2) durchgeführt.
(§5) Das gleiche Infusionsschema wurde an denselben Tieren wiederholt, nachdem elektrische Remodellierung durch induziertes Vorhofflimmern von 1 bis 4 Tagen erzeugt wurde.
as §4, with “Ein analoges Infusionsschema wurde an 5 weiteren Tieren mit Dofetilide anstelle von Ibutilide durchgeführt. Nach” for “Nach”, “Dofetilide” for “lbutilide”, “5” for “7”, “Vorhofflimmern)” for “Vorhofflimmem)”, “Dofetilide” for “Ibutilide”, “Dofetilids” for “Ibutilides”
as §5

[3] = test system: persistierendem Vorhofflimmern (AF); test: Atrial fibrillation cycle length (AFCL) in goats with persistent atrial fibrillation; assay type: in vivo, Ziegen
Procedure: as §1, §2
In Fig.1 und Fig.2 sind die Messungen der Zykluslänge des atrialen Flimmerns (AFCL) nach kombinierter Gabe von Ibutilide und der Verbindung des Beispiels 1 bzw. nach kombinierter Gabe von Dofetilide und der Verbindung des Beispiels 1 dargestellt. Die Messungen des AFCL und der Kardioversion erfolgten nebeneinander.
In den Zeichnungen wurden folgende Beschriftungen und Kennzeichnungen vorgenommen: • Fig.1: Messung der Zykluslänge des atrialen Flimmerns (AFCL) nach kombinierter Gabe von Ibutilide und der Verbindung des Beispiels 1 Y-Achse: AFCL in ms X-Achse: Zeit in Minuten Die Verbindung des Beispiels 1 wurde in folgenden Mengen infundiert: • 10 mg/kg/h • 3 mg/kg/h • 1 mg/kg/h • 0.3 mg/kg/h • 0.1 mg/kg/h • 0.0 mg/kg/h (Kontrolle) • Fig.2: Messung der Zykluslänge des atrialen Flimmerns (AFCL) nach kombinierter Gabe von Dofetilide und der Verbindung des Beispiels 1 Y-Achse: AFCL in ms X-Achse: Zeit in Minuten Die Verbindung des Beispiels 1 wurde in folgenden Mengen infundiert: • 10 mg/kg/h • 3 mg/kg/h • 1 mg/kg/h • 0.3 mg/kg/h • 0.1 mg/kg/h • 0.0 mg/kg/h (Kontrolle)

[4] = test system: Ziegen mit persistierendem Vorhofflimmern (AF); test: Efficiency of cardioversion in up to eight goats with persistent atrial fibrillation; assay type: in vivo
Procedure: In weiteren Versuchen wurde die Effizienz der Kardioversion bei verschiedenen Dosierungen der Verbindung des Beispiels 1 und bei zusätzlicher Infusion von Ibutilide (2 mg/kg) bzw. Dofetilide (10 µg/kg) an mehreren Ziegen getestet (Tabelle 5).
as §1, with “bis zu acht” for “zwei”, “Vorhofflimmern” for “Vorhofflimmem von mehr als 45 Tagen”, “Kontrolle wurden bis zu acht Ziegen” for “Kontrolle, wurde einer Ziege”, “1” for “1 der Reihe nach”
as §2, with “an bis zu acht Ziegen” for “einer zweiten Ziege”, “1,3” for “1, 3”
Die Effizienz der Kardioversion von persistierendem Vorhofflimmern (AF) durch die Gabe der Verbindung des Beispiels 1 mit ibutilide bzw. der Verbindung des Beispiels 1 mit Dofetilide sind in der Tabelle 5 bei verschiedenen Dosierungen der Verbindung des Beispiels 1 (0.0, 0.1, 0.3, 1, 3 und 10 mg pro kg Körpergewicht und pro Stunde) dargestellt. Angegeben sind die Anzahl der Ziegen, bei denen Kardioversion auftrat, im Vergleich zu der Anzahl der Ziegen, mit denen der Versuch durchgeführt wurde, und daraus errechnet die Effizienz der Kardioversion in Prozent. Jede Terminierung des persistenten Vorhofflimmerns während einer jeweiligen Infusionsperiode wurde als eine erfolgreiche Kardioversion angesehen. […] Tabelle 5: Effizienz der Kardioversion in Prozent bei Ziegen mit persistierendem Vorhofflimmern (AF) bei verschiedenen Dosierungen der Verbindung des Beispiels 1 und bei zusätzlicher Infusion von Ibutilide bzw. Dofetilide. In Klammern angegeben ist jeweils das Verhältnis Ziegen, bei denen Kardioversion auftrat, zu Ziegen, die bei dem jeweiligen Versuch eingesetzt wurden.

[5] = test system: normalen Ziegen; test: Atrial effective refractory period (AERP) in normal goats; assay type: in vivo; conditions: for atriale effektive Refraktärzeit (AERP): Nicht remodelliert, cycle length 400 ms, mean ± SD, Beispiel 1 3 mg/kg/h; for Verlängerung der AERP: normal atria
Procedure: as §3, §4
Die Kombination beider Substanzen wurde getestet, indem wie oben beschrieben nach der Infusion der Verbindung des Beispiels 1 über eine Stunde zusätzlich Ibutilide verabreicht wurde.
as §4, with “Ein analoges Infusionsschema wurde an 5 weiteren Tieren mit Dofetilide anstelle von Ibutilide durchgeführt. Nach” for “Nach”, “Dofetilide” for “lbutilide”, “5” for “7”, “Vorhofflimmern)” for “Vorhofflimmem)”, “Dofetilide” for “Ibutilide”, “Dofetilids” for “Ibutilides”

[6] = 5 goats, i.v. infusion: Dofetilide 0.12 mg/kg over 60 min
[7] = 7 goats, i.v. infusion: Ibutilide 0.12 mg/kg over 60 min
[8] = n=5, versus control (94 ms and 93 ms), Dofetilide study
[9] = n=7, versus control (93 ms and 97 ms), Ibutilide study
[10] = Fig.1 goat, Ibutilide 2 mg/kg per 30 min given after 60 min (alone: from 94 ms baseline), Beispiel 1 3 mg/kg/h
[11] = Beispiel 1 dose 0,1, alone or + Ibutilide 2mg/kg or + Dofetilide 10µg/kg
[12] = Beispiel 1 dose 0,3, alone or + Ibutilide 2mg/kg or + Dofetilide 10µg/kg
[13] = Beispiel 1 dose 1, alone or + Ibutilide 2mg/kg or + Dofetilide 10µg/kg
[14] = Beispiel 1 dose 10, alone or + Ibutilide 2mg/kg or + Dofetilide 10µg/kg
[15] = n=5, versus control before dosing (151 ms and 158 ms), Dofetilide study
[16] = n=7, versus control before dosing (159 ms and 162 ms), Ibutilide study
[17] = Beispiel 1 dose 0, Ibutilide 2mg/kg or Dofetilide 10µg/kg alone

## COc1ccc(CC(=O)NCc2ccccc2-c2ccccc2C(=O)NCCc2cccnc2)cc1 [Beispiel 1, 2'-{[2-(4-Methoxy-phenyl)-acetylamino]-methyl}-biphenyl-2-carbonsäure-(2-pyridin-3-yl-ethyl)-amid]
[1]; Beispiel 1 10mg/kg/h, time points before the start of Ibutilide at 60 min (monotherapy), one goat, listed as Verbindung des Beispiels 1, 10 mg/kg
  Zeitpunkte der Kardioversion: 42.00 Minuten and 50.00 Minuten
[1]; Beispiel 1 alone at 0.1, 0.3, 1, 3 or 10 mg/kg/h, goat of Tabelle 4
  Kardioversion: nicht zur Kardioversion
[1]; monotherapy, only at 10 mg/kg/h, goat of Tabelle 3
  Kardioversion: möglich, eine Kardioversion herbeizuführen
[2]; [6]
  atriale effektive Refraktärzeit (AERP): 164 ± 19 ms
[2]; [7]
  atriale effektive Refraktärzeit (AERP): 160 ± 16 ms
[2]; [8]
  Verlängerung des AERP: 71 ms
[2]; [9]
  Verlängerung des AERP: 63 ms
[3]; [10]
  AFCL: 147 ms
[3]; Fig.2 goat, Beispiel 1 alone at 0.1, 0.3, 1, 3 or 10 mg/kg/h
  AFCL: dosisabhängigen Zunahme der AFCL
[4]; [11]
  Effizienz der Cardioversion: 17%
  Verhältnis Ziegen, bei denen Kardioversion auftrat, zu Ziegen, die eingesetzt wurden: (1/6)
[4]; [12]
  Effizienz der Cardioversion: 17%
  Verhältnis Ziegen, bei denen Kardioversion auftrat, zu Ziegen, die eingesetzt wurden: (1/6)
[4]; [13]
  Effizienz der Cardioversion: 13%
  Verhältnis Ziegen, bei denen Kardioversion auftrat, zu Ziegen, die eingesetzt wurden: (1/8)
[4]; Beispiel 1 dose 3, alone or + Ibutilide 2mg/kg or + Dofetilide 10µg/kg
  Effizienz der Cardioversion: 38%
[4]; Beispiel 1 dose 3, alone or + Ibutilide 2mg/kg or + Dofetilide 10µg/kg, listed as Verbindung des Beispiels 1
  Verhältnis Ziegen, bei denen Kardioversion auftrat, zu Ziegen, die eingesetzt wurden: 3 von 8 and (3/8)
[4]; [14]
  Effizienz der Cardioversion: 63%
  Verhältnis Ziegen, bei denen Kardioversion auftrat, zu Ziegen, die eingesetzt wurden: (5/8)
[5]; [6]
  atriale effektive Refraktärzeit (AERP): 209 ± 29 ms
[5]; [7]
  atriale effektive Refraktärzeit (AERP): 206 ± 26 ms
[5]; [15]
  Verlängerung der AERP: 51 ms
[5]; [16]
  Verlängerung der AERP: 44 ms

## CN(CCOc1ccc(NS(C)(=O)=O)cc1)CCc1ccc(NS(C)(=O)=O)cc1 [Dofetilide, reference compound]
[1]; 10 µg/kg Dofetilide over 30 min without Beispiel 1, goat of Tabelle 4
  Kardioversion: eine Kardioversion nicht eintritt
[2]; [6]
  atriale effektive Refraktärzeit (AERP): 101 ± 19 ms
[2]; [8]
  Verlängerung des AERP: 7 ms
[3]; Fig.2 goat, 10 µg/kg Dofetilide over 30 min without Beispiel 1
  Anstieg der AFCL: 14 ms
[3]; Fig.2 goat, 10 µg/kg Dofetilide over 30 min without Beispiel 1, from 92 ms baseline
  AFCL: 106 ms
[4]; [17]
  Effizienz der Cardioversion: 25%
  Verhältnis Ziegen, bei denen Kardioversion auftrat, zu Ziegen, die eingesetzt wurden: (1/4)
[5]; [6]
  atriale effektive Refraktärzeit (AERP): 172 ± 11 ms
[5]; [15]
  Verlängerung der AERP: 21 ms

## CCCCCCCN(CC)CCCC(O)c1ccc(NS(C)(=O)=O)cc1 (stereo not drawn) [Ibutilide, reference compound]
[2]; [7]
  atriale effektive Refraktärzeit (AERP): 98 ± 20 ms
[2]; [9]
  Verlängerung des AERP: 5 ms
[3]; [10]
  AFCL: 101 ms
[4]; [17]
  Effizienz der Cardioversion: 29%
  Verhältnis Ziegen, bei denen Kardioversion auftrat, zu Ziegen, die eingesetzt wurden: (2/7)
[5]; [7]
  atriale effektive Refraktärzeit (AERP): 185 ± 23 ms
[5]; [16]
  Verlängerung der AERP: 26 ms
